According to the NIST ThermoML archive (doi:10.1021/acs.jced.5b00326):
“And” between values parts separate entries of the source, which are not always exact repeats. Equal entries are not always repeated. Numbers after ± are expanded uncertainties.

Assay: mn = molality of the nth substance listed, in mol/kg
Conditions: Liquid; for speed of sound: 100 kPa, Sing-around technique in a fixed-path interferometer; for mass density: 101 kPa, Vibrating tube method

O=P([O-])([O-])O.[K+].[K+] [dipotassium hydrogen phosphate] + O
Conditions | mass density, 288.15 K [kg/m3] | mass density, 293.15 K [kg/m3] | mass density, 298.15 K [kg/m3] | mass density, 303.15 K [kg/m3] | mass density, 308.15 K [kg/m3] | speed of sound, 288.15 K [m/s] | speed of sound, 293.15 K [m/s] | speed of sound, 298.15 K [m/s] | speed of sound, 303.15 K [m/s] | speed of sound, 308.15 K [m/s]
m1 = 0.01907 | 1001.68 ± 14 | 1000.76 ± 14 | 999.574 ± 14 | 998.164 ± 14 | 996.53 ± 14 | 1466.9 ± 20 | 1484.8 ± 20 | 1499.7 ± 20 | 1514.5 ± 20 | 1522.3 ± 20
m1 = 0.04894 | 1005.7 ± 14 | 1004.75 ± 14 | 1003.53 ± 14 | 1002.09 ± 14 | 1000.43 ± 14 | 1471.1 ± 20 | 1489 ± 20 | 1503.9 ± 20 | 1518.7 ± 20 | 1526.5 ± 20
m1 = 0.06838 | 1008.31 ± 14 | 1007.35 ± 14 | 1006.11 ± 14 | 1004.65 ± 14 | 1002.97 ± 14 | 1473.8 ± 20 | 1491.8 ± 20 | 1506.6 ± 20 | 1521.5 ± 20 | 1529.3 ± 20
m1 = 0.09992 | 1012.56 ± 14 | 1011.57 ± 14 | 1010.29 ± 14 | 1008.79 ± 14 | 1007.09 ± 14 | 1478.3 ± 20 | 1496.2 ± 20 | 1511.1 ± 20 | 1525.9 ± 20 | 1533.7 ± 20
m1 = 0.1992 | 1025.92 ± 14 | 1024.84 ± 14 | 1023.44 ± 14 | 1021.85 ± 14 | 1020.05 ± 14 | 1492.2 ± 20 | 1510.2 ± 20 | 1525 ± 20 | 1539.9 ± 20 | 1547.7 ± 20
m1 = 0.2993 | 1039.39 ± 14 | 1038.23 ± 14 | 1036.7 ± 14 | 1035.01 ± 14 | 1033.13 ± 14 | 1506.3 ± 20 | 1524.2 ± 20 | 1539.1 ± 20 | 1554 ± 20 | 1561.8 ± 20
m1 = 0.3965 | 1052.47 ± 14 | 1051.22 ± 14 | 1049.58 ± 14 | 1047.79 ± 14 | 1045.82 ± 14 | 1520 ± 20 | 1537.9 ± 20 | 1552.8 ± 20 | 1567.6 ± 20 | 1575.4 ± 20
m1 = 0.4942 | 1065.63 ± 14 | 1064.29 ± 14 | 1062.53 ± 14 | 1060.65 ± 14 | 1058.58 ± 14 | 1533.8 ± 20 | 1551.7 ± 20 | 1566.5 ± 20 | 1581.4 ± 20 | 1589.2 ± 20
m1 = 0.6 | 1079.87 ± 14 | 1078.43 ± 14 | 1076.55 ± 14 | 1074.56 ± 14 | 1072.4 ± 14 | 1548.6 ± 20 | 1566.6 ± 20 | 1581.4 ± 20 | 1596.3 ± 20 | 1604.1 ± 20
m1 = 0.6969 | 1092.92 ± 14 | 1091.39 ± 14 | 1089.39 ± 14 | 1087.3 ± 14 | 1085.06 ± 14 | 1562.3 ± 20 | 1580.2 ± 20 | 1595.1 ± 20 | 1609.9 ± 20 | 1617.7 ± 20
m1 = 0.7929 | 1105.83 ± 14 | 1104.22 ± 14 | 1102.11 ± 14 | 1099.92 ± 14 | 1097.59 ± 14 | 1575.8 ± 20 | 1593.7 ± 20 | 1608.6 ± 20 | 1623.4 ± 20 | 1631.2 ± 20
m1 = 0.8916 | 1119.12 ± 14 | 1117.41 ± 14 | 1115.18 ± 14 | 1112.9 ± 14 | 1110.48 ± 14 | 1589.7 ± 20 | 1607.6 ± 20 | 1622.5 ± 20 | 1637.3 ± 20 | 1645.1 ± 20
m1 = 0.9907 | 1132.46 ± 14 | 1130.67 ± 14 | 1128.32 ± 14 | 1125.93 ± 14 | 1123.43 ± 14 | 1603.6 ± 20 | 1621.5 ± 20 | 1636.4 ± 20 | 1651.2 ± 20 | 1659 ± 20

O=P([O-])([O-])O.[Na+].[Na+] [disodium hydrogen phosphate] + O
speed of sound [m/s], Frequency=3 MHz
Conditions | 288.15 K | 293.15 K | 298.15 K | 303.15 K | 308.15 K
m1 = 0.02076 | 1467.8 ± 20 | 1485.6 ± 20 | 1500.3 ± 20 | 1515 ± 20 | 1522.8 ± 20
m1 = 0.04991 | 1472.7 ± 20 | 1490.4 ± 20 | 1505 ± 20 | 1519.3 ± 20 | 1527.1 ± 20
m1 = 0.07047 | 1476.2 ± 20 | 1493.8 ± 20 | 1508.3 ± 20 | 1522.4 ± 20 | 1530.2 ± 20
m1 = 0.1014 | 1481.5 ± 20 | 1498.9 ± 20 | 1513.2 ± 20 | 1527.1 ± 20 | 1534.9 ± 20
m1 = 0.1983 | 1497.9 ± 20 | 1514.9 ± 20 | 1528.8 ± 20 | 1541.6 ± 20 | 1549.4 ± 20
m1 = 0.2992 | 1515.1 ± 20 | 1531.5 ± 20 | 1544.9 ± 20 | 1556.8 ± 20 | 1564.5 ± 20
m1 = 0.394 | 1531.2 ± 20 | 1547.2 ± 20 | 1560.1 ± 20 | 1571 ± 20 | 1578.8 ± 20
m1 = 0.4957 | 1548.5 ± 20 | 1564 ± 20 | 1576.4 ± 20 | 1586.2 ± 20 | 1594 ± 20
m1 = 0.5971 | 1565.8 ± 20 | 1580.7 ± 20 | 1592.6 ± 20 | 1601.5 ± 20 | 1609.3 ± 20
m1 = 0.6947 | 1582.4 ± 20 | 1596.8 ± 20 | 1608.2 ± 20 | 1616.1 ± 20 | 1623.9 ± 20
m1 = 0.7942 | 1599.3 ± 20 | 1613.3 ± 20 | 1624.2 ± 20 | 1631 ± 20 | 1638.8 ± 20
m1 = 0.876 | 1613.2 ± 20 | 1626.8 ± 20 | 1637.3 ± 20 | 1643.3 ± 20 | 1651.1 ± 20
m1 = 0.976 | 1630.2 ± 20 | 1643.3 ± 20 | 1653.3 ± 20 | 1658.3 ± 20 | 1666.1 ± 20

mass density [kg/m3]
Conditions | 288.15 K | 293.15 K | 298.15 K | 303.15 K | 308.15 K
m1 = 0.02076 | 1001.71 ± 14 | 1000.78 ± 14 | 999.59 ± 14 | 998.178 ± 14 | 996.536 ± 14
m1 = 0.04991 | 1005.35 ± 14 | 1004.39 ± 14 | 1003.16 ± 14 | 1001.72 ± 14 | 1000.04 ± 14
m1 = 0.07047 | 1007.92 ± 14 | 1006.93 ± 14 | 1005.68 ± 14 | 1004.22 ± 14 | 1002.52 ± 14
m1 = 0.1014 | 1011.78 ± 14 | 1010.76 ± 14 | 1009.47 ± 14 | 1007.97 ± 14 | 1006.24 ± 14
m1 = 0.1983 | 1023.89 ± 14 | 1022.75 ± 14 | 1021.33 ± 14 | 1019.74 ± 14 | 1017.89 ± 14
m1 = 0.2992 | 1036.51 ± 14 | 1035.25 ± 14 | 1033.7 ± 14 | 1032.01 ± 14 | 1030.03 ± 14
m1 = 0.394 | 1048.36 ± 14 | 1046.99 ± 14 | 1045.31 ± 14 | 1043.53 ± 14 | 1041.44 ± 14
m1 = 0.4957 | 1061.07 ± 14 | 1059.58 ± 14 | 1057.77 ± 14 | 1055.88 ± 14 | 1053.67 ± 14
m1 = 0.5971 | 1073.75 ± 14 | 1072.14 ± 14 | 1070.2 ± 14 | 1068.21 ± 14 | 1065.88 ± 14
m1 = 0.6947 | 1085.95 ± 14 | 1084.21 ± 14 | 1082.15 ± 14 | 1080.06 ± 14 | 1077.61 ± 14
m1 = 0.7942 | 1098.39 ± 14 | 1096.54 ± 14 | 1094.34 ± 14 | 1092.15 ± 14 | 1089.58 ± 14
m1 = 0.876 | 1108.62 ± 14 | 1106.66 ± 14 | 1104.36 ± 14 | 1102.1 ± 14 | 1099.43 ± 14
m1 = 0.976 | 1121.11 ± 14 | 1119.04 ± 14 | 1116.61 ± 14 | 1114.24 ± 14 | 1111.45 ± 14

CCCCCCn1cc[n+](C)c1.[Cl-] [1-hexyl-3-methylimidazolium chloride] + O
speed of sound, Frequency=3 MHz
Conditions | 288.15 K | 293.15 K | 298.15 K | 303.15 K | 308.15 K
m1 = 0.01 | 1474.3 ± 20 m/s and 1468.6 ± 20 m/s | 1484.6 ± 20 m/s and 1490.1 ± 20 m/s | 1498.7 ± 20 m/s and 1505 ± 20 m/s | 1511 ± 20 m/s and 1517 ± 20 m/s | 1521.3 ± 20 m/s and 1525.1 ± 20 m/s
m1 = 0.03 | 1474.3 ± 20 m/s | 1490.1 ± 20 m/s | 1505 ± 20 m/s | 1517 ± 20 m/s | 1525.1 ± 20 m/s

mass density [kg/m3]
Conditions | 288.15 K | 293.15 K | 298.15 K | 303.15 K | 308.15 K
m1 = 0.01 | 999.911 ± 14 | 999.007 ± 14 | 997.841 ± 14 | 996.436 ± 14 | 994.818 ± 14
m1 = 0.03 | 1000.17 ± 14 | 999.246 ± 14 | 998.052 ± 14 | 996.623 ± 14 | 995.004 ± 14
